Test results reported in PubChem BioAssay (NCI).
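Grown in 96-well plates, cells were treated for 48 hours with each compound at five concentrations. Insufficient inhibition: endpoint recorded as highest concentration tested. GI50 marks 50% less growth. TGI denotes the concentration required for complete inhibition of growth.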

Tests used:
Assay in all cases: growth of human tumour cells (NCI), 48 h; in the data active = GI50 below about 0.43 µM; inactive = the rest
[1] = system: 786-0 renal
[2] = system: A498 renal
[3] = system: A549 NSCLC
[4] = system: ACHN renal
[5] = system: BT-549 breast
[6] = system: CAKI-1 renal
[7] = system: CCRF-CEM leukemia
[8] = system: COLO 205 colon
[9] = system: DU-145 prostate
[10] = system: EKVX NSCLC
[11] = system: HCC-2998 colon
[12] = system: HCT-116 colon
[13] = system: HCT-15 colon
[14] = system: HL-60(TB) leukemia
[15] = system: HOP-62 NSCLC
[16] = system: HOP-92 NSCLC
[17] = system: HS 578T breast
[18] = system: HT29 colon
[19] = system: IGROV1 ovarian
[20] = system: K-562 leukemia
[21] = system: KM12 colon
[22] = system: LOX IMVI melanoma
[23] = system: M14 melanoma
[24] = system: MALME-3M melanoma
[25] = system: MCF7 breast
[26] = system: MDA-MB-231 breast
[27] = system: MDA-MB-435
[28] = system: MOLT-4 leukemia
[29] = system: NCI-H226 lung
[30] = system: NCI-H23 lung
[31] = system: NCI-H460 lung
[32] = system: NCI-H522 lung
[33] = system: NCI/ADR-RES ovarian
[34] = system: OVCAR-3 ovarian
[35] = system: OVCAR-4 ovarian
[36] = system: OVCAR-5 ovarian
[37] = system: OVCAR-8 ovarian
[38] = system: PC-3 prostate
[39] = system: RPMI-8226 leukemia
[40] = system: RXF 393 renal
[41] = system: SF-268 CNS
[42] = system: SF-295 CNS
[43] = system: SF-539 CNS
[44] = system: SK-MEL-2 melanoma
[45] = system: SK-MEL-28 melanoma
[46] = system: SK-MEL-5 melanoma
[47] = system: SK-OV-3 ovarian
[48] = system: SN12C renal
[49] = system: SNB-19 CNS
[50] = system: SNB-75 CNS
[51] = system: SW-620 colon
[52] = system: T-47D breast
[53] = system: TK-10 renal
[54] = system: U251 CNS
[55] = system: UACC-257 melanoma
[56] = system: UACC-62 melanoma
[57] = system: UO-31 renal
[58] = system: SR leukemia

COc1ccc2c(c1)C(=O)/C(=C/c1cccc(OCC(=O)c3ccccc3)c1)CC2
> 100000 nM: TGI [30] | TGI [34]
5.91 µM: TGI [39]
93.9 µM: TGI [33]
active: GI50 [40] 50.2 nM
5.16 µM: TGI [14]
> 100 µM: TGI [1] | TGI [3] | TGI [4] | TGI [5] | TGI [6] | TGI [8] | TGI [9] | TGI [10] | TGI [11] | TGI [12] | TGI [13] | TGI [15] | TGI [17] | TGI [18] | TGI [19] | TGI [21] | TGI [22] | TGI [23] | TGI [24] | TGI [25] | TGI [26] | TGI [29] | TGI [31] | TGI [32] | TGI [35] | TGI [36] | TGI [37] | TGI [38] | TGI [41] | TGI [42] | TGI [43] | TGI [44] | TGI [45] | TGI [47] | TGI [48] | TGI [49] | TGI [50] | TGI [51] | TGI [52] | TGI [53] | TGI [54] | TGI [55] | TGI [56] | TGI [57]
792 nM: TGI [16]
7.67 µM: TGI [7]
16.5 µM: TGI [46]
10.5 µM: TGI [27]
inactive: GI50 [1] 54.4 µM | GI50 [2] 17.3 µM | GI50 [3] 36.6 µM | GI50 [4] 31.8 µM | GI50 [5] 27.1 µM | GI50 [6] 13 µM | GI50 [7] 2480 nM | GI50 [8] 88.5 µM | GI50 [9] 32.6 µM | GI50 [10] 13.9 µM | GI50 [11] 25.8 µM | GI50 [12] 3520 nM | GI50 [13] 7.11 µM | GI50 [14] 2180 nM | GI50 [15] 42.5 µM | GI50 [17] 43.7 µM | GI50 [18] 9.9 µM | GI50 [19] 4190 nM | GI50 [20] 1980 nM | GI50 [21] 6.92 µM | GI50 [22] 9.61 µM | GI50 [23] 16.7 µM | GI50 [24] 28.5 µM | GI50 [25] 4530 nM | GI50 [26] 69.9 µM | GI50 [27] 2090 nM | GI50 [28] 3050 nM | GI50 [29] 28.6 µM | GI50 [30] 18.9 µM | GI50 [31] 28.1 µM | GI50 [32] 8.84 µM | GI50 [33] 5.42 µM | GI50 [34] 18.3 µM | GI50 [35] 12.5 µM | GI50 [36] > 100000 nM | GI50 [37] 44.1 µM | GI50 [38] 4.92 µM | GI50 [39] 2310 nM | GI50 [41] 45.2 µM | GI50 [42] 10.3 µM | GI50 [43] 64.7 µM | GI50 [44] 13.4 µM | GI50 [45] 32.8 µM | GI50 [46] 4140 nM | GI50 [47] 62.9 µM | GI50 [48] 61 µM | GI50 [49] 39.6 µM | GI50 [50] 42.4 µM | GI50 [51] 4.88 µM | GI50 [52] 7.05 µM | GI50 [53] > 100000 nM | GI50 [54] 16.8 µM | GI50 [55] 8.56 µM | GI50 [56] 12.8 µM | GI50 [57] 29.2 µM
5.82 µM: TGI [20]
80.8 µM: TGI [2]
8.05 µM: TGI [40]
6.82 µM: TGI [28]

CC(=O)c1c(C(F)(F)F)n([O-])c2ccccc2[n+]1=O
3.8 µM: TGI [6]
18 µM: TGI [45]
2430 nM: TGI [30]
4.48 µM: TGI [2]
8.3 µM: TGI [18]
5.38 µM: TGI [43]
18.5 µM: TGI [49]
10.5 µM: TGI [12]
7.27 µM: TGI [8]
50.4 µM: TGI [13]
6.13 µM: TGI [41]
6.5 µM: TGI [17]
2300 nM: TGI [58]
23.9 µM: TGI [47]
inactive: GI50 [1] 2.86 µM | GI50 [2] 1.56 µM | GI50 [3] 2.28 µM | GI50 [4] 1.05 µM | GI50 [5] 2.48 µM | GI50 [6] 1.21 µM | GI50 [8] 2.16 µM | GI50 [10] 3.47 µM | GI50 [12] 1550 nM | GI50 [13] 1.29 µM | GI50 [15] 2.34 µM | GI50 [16] 1220 nM | GI50 [17] 1.97 µM | GI50 [18] 1.3 µM | GI50 [19] 1020 nM | GI50 [20] 1260 nM | GI50 [21] 1.19 µM | GI50 [22] 1.31 µM | GI50 [23] 1.63 µM | GI50 [24] 0.652 µM | GI50 [25] 873 nM | GI50 [26] 1.27 µM | GI50 [27] 1200 nM | GI50 [28] 613 nM | GI50 [29] 1.46 µM | GI50 [30] 1 µM | GI50 [31] 0.857 µM | GI50 [32] 2.46 µM | GI50 [33] 1.49 µM | GI50 [34] 0.746 µM | GI50 [35] 0.969 µM | GI50 [36] 1180 nM | GI50 [37] 2.96 µM | GI50 [38] 1.3 µM | GI50 [39] 572 nM | GI50 [40] 1570 nM | GI50 [41] 1.49 µM | GI50 [42] 1.07 µM | GI50 [43] 2 µM | GI50 [44] 4.56 µM | GI50 [45] 3.48 µM | GI50 [46] 494 nM | GI50 [47] 3.17 µM | GI50 [48] 1.07 µM | GI50 [49] 4.77 µM | GI50 [51] 1.57 µM | GI50 [52] 0.748 µM | GI50 [53] 1200 nM | GI50 [54] 2.17 µM | GI50 [55] 2.77 µM | GI50 [56] 0.7 µM | GI50 [57] 2.69 µM
3.06 µM: TGI [24]
13.3 µM: TGI [51]
4.58 µM: TGI [22]
9.06 µM: TGI [5]
14.3 µM: TGI [3]
4.53 µM: TGI [42]
11.9 µM: TGI [15]
3.67 µM: TGI [36]
3.62 µM: TGI [39]
3.91 µM: TGI [29]
3.17 µM: TGI [48]
2.93 µM: TGI [33]
14.5 µM: TGI [54]
6.03 µM: TGI [40]
10.8 µM: TGI [31] | TGI [38]
4350 nM: TGI [16]
8.01 µM: TGI [10]
3.9 µM: TGI [35]
3.78 µM: TGI [19]
15.3 µM: TGI [1]
3.61 µM: TGI [26]
4.03 µM: TGI [27]
4.02 µM: TGI [52]
7.47 µM: TGI [23]
> 100 µM: TGI [20] | TGI [28] | TGI [32] | TGI [37] | TGI [44]
active: GI50 [58] 167 nM
4.08 µM: TGI [25]
3.43 µM: TGI [21]
3.02 µM: TGI [56]
2610 nM: TGI [34]
13.6 µM: TGI [55]
12.1 µM: TGI [57]
1.87 µM: TGI [46]
12.3 µM: TGI [4]
5.59 µM: TGI [53]
